From patent US9475817B2 (BRISTOL-MYERS SQUIBB COMPANY, priority 2012, dated 2016)

How the values were obtained:
[1] = molecular target: CK1δ (Homo sapiens (Human), UniProt P48730); assay: CK1δ kinase assay (Caliper LabChip, fluoresceinated peptide substrate); format: biochemical; conditions: 200 pM CK1δ, 50 μM ATP, 1.5 μM peptide substrate, 22 hours room temperature
Protocol: (§1) CK1ε and CK1δ Kinase Assays
(§2) The kinase assay was performed in V-bottom 384-well plates. […] The reaction was incubated at room temperature for 22 hours and terminated by adding 45 μl of 35 mM EDTA to each sample. […] Compounds were dissolved at 10 mM in dimethylsulfoxide (DMSO) and evaluated at eleven concentrations. IC50 values were derived by non-linear regression analysis.

[2] = molecular target: CK1ε (Homo sapiens (Human), UniProt P49674); assay: CK1ε kinase assay (Caliper LabChip, fluoresceinated peptide substrate); format: biochemical; conditions: 200 pM CK1ε, 50 μM ATP, 1.5 μM peptide substrate, 22 hours room temperature
Protocol: as §1, §2

CK1δ, sequence (P48730 whole entry): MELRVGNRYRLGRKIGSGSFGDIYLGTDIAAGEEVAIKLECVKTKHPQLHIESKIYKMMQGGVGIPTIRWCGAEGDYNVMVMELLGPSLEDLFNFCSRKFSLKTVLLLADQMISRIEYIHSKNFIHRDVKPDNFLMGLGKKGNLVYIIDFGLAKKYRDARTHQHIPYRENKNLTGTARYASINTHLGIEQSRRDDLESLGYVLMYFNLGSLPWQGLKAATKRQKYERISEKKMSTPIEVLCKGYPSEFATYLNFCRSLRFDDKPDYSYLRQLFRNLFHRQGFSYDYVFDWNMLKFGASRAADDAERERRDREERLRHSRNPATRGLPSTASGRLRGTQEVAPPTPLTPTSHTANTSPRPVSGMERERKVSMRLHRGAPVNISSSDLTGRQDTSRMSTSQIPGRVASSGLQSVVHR
CK1ε, sequence (P49674 whole entry): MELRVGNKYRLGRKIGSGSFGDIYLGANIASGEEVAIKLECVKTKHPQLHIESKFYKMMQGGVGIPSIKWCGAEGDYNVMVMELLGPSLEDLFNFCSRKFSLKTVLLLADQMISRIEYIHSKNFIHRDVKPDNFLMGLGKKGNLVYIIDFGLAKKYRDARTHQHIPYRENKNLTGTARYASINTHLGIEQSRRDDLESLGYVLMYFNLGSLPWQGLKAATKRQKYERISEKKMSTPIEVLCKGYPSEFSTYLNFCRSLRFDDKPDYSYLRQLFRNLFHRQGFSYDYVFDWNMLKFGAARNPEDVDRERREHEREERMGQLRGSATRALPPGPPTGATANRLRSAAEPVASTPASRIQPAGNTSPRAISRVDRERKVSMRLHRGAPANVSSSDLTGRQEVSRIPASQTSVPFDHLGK

SMILES | IC50 [1] [nM] | IC50 [2] [nM]
Cn1nc(-c2ccc(F)cc2)c(-c2ccc3nc(NC(=O)c4ccnc(N5CCOCC5)c4)cn3n2)c1N1CCN(C(=O)c2ccon2)CC1 [Compound 137, N-(6-(3-(4-Fluorophenyl)-5-(4-(isoxazole-3-carbonyl)piperazin-1-yl)-1-methyl-1H-pyrazol-4-yl)imidazo[1,2-b]pyridazin-2-yl)-2-morpholinoisonicotinamide] | 1 | 10.1
Cn1nc(-c2ccc(F)cc2)c(-c2ccc3nc(NC(=O)c4ccnc(N5CCOCC5)c4)cn3n2)c1N1CCN(C(=O)CC(F)(F)F)CC1 [Compound 138, N-(6-(3-(4-Fluorophenyl)-1-methyl-5-(4-(3,3,3-trifluoropropanoyl)piperazin-1-yl)-1H-pyrazol-4-yl)imidazo[1,2-b]pyridazin-2-yl)-2-morpholinoisonicotinamide] | 1.6 | 9.3
Cn1nc(-c2ccc(F)cc2)c(-c2ccc3nc(NC(=O)c4ccnc(N5CCOCC5)c4)cn3n2)c1N1CCN(CCCF)CC1 [Compound 139, N-(6-(3-(4-Fluorophenyl)-5-(4-(3-fluoropropyl)piperazin-1-yl)-1-methyl-1H-pyrazol-4-yl)imidazo[1,2-b]pyridazin-2-yl)-2-morpholinoisonicotinamide] | 1.4 | 9.3
Cn1nc(-c2ccc(F)cc2)c(-c2ccc3nc(NC(=O)c4ccnc(N)c4)cn3n2)c1N1CCNCC1 [Compound 140, 2-Amino-N-(6-(3-(4-fluorophenyl)-1-methyl-5-(piperazin-1-yl)-1H-pyrazol-4-yl)imidazo[1,2-b]pyridazin-2-yl)isonicotinamide] | 2.5 | 2.4
Cn1nc(-c2ccc(F)cc2)c(-c2ccc3nc(NC(=O)c4ccnc(N)c4)cn3n2)c1N1CCN(CCC(F)(F)F)CC1 [Compound 141, 2-Amino-N-(6-(3-(4-fluorophenyl)-1-methyl-5-(4-(3,3,3-trifluoropropyl)piperazin-1-yl)-1H-pyrazol-4-yl)imidazo[1,2-b]pyridazin-2-yl)isonicotinamide] | 2.5 | 32
Cn1nc(-c2ccc(F)cc2)c(-c2ccc3nc(NC(=O)c4ccnc(N)c4)cn3n2)c1N1CCN(Cc2ccon2)CC1 [Compound 142, 2-Amino-N-(6-(3-(4-fluorophenyl)-5-(4-(isoxazol-3-ylmethyl)piperazin-1-yl)-1-methyl-1H-pyrazol-4-yl)imidazo[1,2-b]pyridazin-2-yl)isonicotinamide] | 0.3 | 2.2
Cn1nc(-c2ccc(F)cc2)c(-c2ccc3nc(NC(=O)c4cc(F)nc(F)c4)cn3n2)c1N1CCOCC1 [Compound 145, 2,6-difluoro-N-(6-(3-(4-fluorophenyl)-1-methyl-5-morpholino-1H-pyrazol-4-yl)imidazo[1,2-b]pyridazin-2-yl) isonicotinamide] | 1.4 | 22.8
Cc1nc(-c2cccnc2)sc1C(=O)Nc1cn2nc(-c3c(-c4ccc(F)cc4)nn(C)c3N3CCOCC3)ccc2n1 [Compound 146, N-(6-(3-(4-fluorophenyl)-1-methyl-5-morpholino-1H-pyrazol-4-yl)imidazo [1,2-b]pyridazin-2-yl)-4-methyl-2-(pyridin-3-yl)thiazole-5-carboxamide] | 0.5 | 4.9
Cc1nc(-c2ccncc2)sc1C(=O)Nc1cn2nc(-c3c(-c4ccc(F)cc4)nn(C)c3N3CCOCC3)ccc2n1 [Compound 147, N-(6-(3-(4-fluorophenyl)-1-methyl-5-morpholino-1H-pyrazol-4-yl)imidazo [1,2-b]pyridazin-2-yl)-4-methyl-2-(pyridin-4-yl)thiazole-5-carboxamide] | 0.7 | 7.9
Cn1nc(-c2ccc(F)cc2)c(-c2ccc3nc(NC(=O)c4ccnc(F)c4)cn3n2)c1C1CCNCC1 [Compound 148, 2-Fluoro-N-(6-(3-(4-fluorophenyl)-1-methyl-5-(piperidin-4-yl)-1H-pyrazol-4-yl)imidazo[1,2-b]pyridazin-2-yl)isonicotinamide] | 2.1 | 2.6
Cn1nc(-c2ccc(F)cc2)c(-c2ccc3nc(NC(=O)c4ccnc(F)c4)cn3n2)c1C1CCN(Cc2ccon2)CC1 [Compound 150, 2-Fluoro-N-(6-(3-(4-fluorophenyl)-5-(1-(isoxazol-3-ylmethyl)piperidin-4-yl)-1-methyl-1H-pyrazol-4-yl)imidazo[1,2-b]pyridazin-2-yl)isonicotinamide] | 1.1 | 1
Cn1nc(-c2ccc(F)cc2)c(-c2ccc3nc(NC(=O)c4ccnc(F)c4)cn3n2)c1C1CCN(C(=O)CC(F)(F)F)CC1 [Compound 151, 2-Fluoro-N-(6-(3-(4-fluorophenyl)-1-methyl-5-(1-(3,3,3-trifluoropropanoyl)piperidin-4-yl)-1H-pyrazol-4-yl)imidazo[1,2-b]pyridazin-2-yl)isonicotinamide] | 0.5 | 5.7
COCC(=O)N1CCC(c2c(-c3ccc4nc(NC(=O)c5ccnc(F)c5)cn4n3)c(-c3ccc(F)cc3)nn2C)CC1 [Compound 152, 2-fluoro-N-(6-(3-(4-fluorophenyl)-5-(1-(2-methoxyacetyl)piperidin-4-yl)-1-methyl-1H-pyrazol-4-yl)imidazo[1,2-b]pyridazin-2-yl) isonicotinamide] | 0.3 | 2.7
Cn1nc(-c2ccc(F)cc2)c(-c2ccc3nc(NC(=O)c4ccnc(F)c4)cn3n2)c1C1CCN(C(=O)c2ccon2)CC1 [Compound 153, 2-fluoro-N-(6-(3-(4-fluorophenyl)-5-(1-(isoxazole-3-carbonyl)piperidin-4-yl)-1-methyl-1H-pyrazol-4-yl)imidazo[1,2-b]pyridazin-2-yl)isonicotinamide] | 0.3 | 2.2
Cn1nc(-c2ccc(F)cc2)c(-c2ccc3nc(NC(=O)c4ccnc(F)c4)cn3n2)c1C1CCN(C(=O)c2cncs2)CC1 [Compound 154, 2-fluoro-N-(6-(3-(4-fluorophenyl)-1-methyl-5-(1-(thiazole-5-carbonyl)piperidin-4-yl)-1H-pyrazol-4-yl)imidazo[1,2-b]pyridazin-2-yl)isonicotinamide] | 0.3 | 0.3
Cn1nc(-c2ccc(F)cc2)c(-c2ccc3nc(NC(=O)c4ccnc(F)c4)cn3n2)c1C1CCN(CCC#N)CC1 [Compound 156, N-(6-(5-(1-(2-Cyanoethyl)piperidin-4-yl)-3-(4-fluorophenyl)-1-methyl-1H-pyrazol-4-yl)imidazo[1,2-b]pyridazin-2-yl)-2-fluoroisonicotinamide] | 0.4 | 2.6
Cn1nc(-c2ccc(F)cc2)c(-c2ccc3nc(NC(=O)c4ccnc(F)c4)cn3n2)c1C1CCN(CC(N)=O)CC1 [Compound 157, N-(6-(5-(1-(2-Amino-2-oxoethyl)piperidin-4-yl)-3-(4-fluorophenyl)-1-methyl-1H-pyrazol-4-yl)imidazo[1,2-b]pyridazin-2-yl)-2-fluoroisonicotinamide] | 0.3 | 1.3
Cn1nc(-c2ccc(F)cc2)c(-c2ccc3nc(NC(=O)c4ccnc(F)c4)cn3n2)c1C1CCN(C[C@@H](O)C(F)(F)F)CC1 [Compound 158, (R)-2-Fluoro-N-(6-(3-(4-fluorophenyl)-1-methyl-5-(1-(3,3,3-trifluoro-2-hydroxypropyl)piperidin-4-yl)-1H-pyrazol-4-yl)imidazo[1,2-b]pyridazin-2-yl)isonicotinamide] | 0.2 | 0.3
Cn1nc(-c2ccc(F)cc2)c(-c2ccc3nc(NC(=O)c4ccnc(F)c4)cn3n2)c1C1CCN(C[C@H](O)C(F)(F)F)CC1 [Compound 159, (S)-2-Fluoro-N-(6-(3-(4-fluorophenyl)-1-methyl-5-(1-(3,3,3-trifluoro-2-hydroxypropyl)piperidin-4-yl)-1H-pyrazol-4-yl)imidazo[1,2-b]pyridazin-2-yl)isonicotinamide] | 0.4 | 1.4
Cn1nc(-c2ccc(F)cc2)c(-c2ccc3nc(NC(=O)c4ccnc(N5CCOCC5)c4)cn3n2)c1C1CCNCC1 [Compound 160, N-(6-(3-(4-Fluorophenyl)-1-methyl-5-(piperidin-4-yl)-1H-pyrazol-4-yl)imidazo[1,2-b]pyridazin-2-yl)-2-morpholinoisonicotinamide] | 1.5 | 1
Cn1nc(-c2ccc(F)cc2)c(-c2ccc3nc(NC(=O)c4ccnc(N5CCOCC5)c4)cn3n2)c1C1CCN(CCC(F)(F)F)CC1 [Compound 161, N-(6-(3-(4-Fluorophenyl)-1-methyl-5-(1-(3,3,3-trifluoropropyl)piperidin-4-yl)-1H-pyrazol-4-yl)imidazo[1,2-b]pyridazin-2-yl)-2-morpholinoisonicotinamide] | 1.7 | 22.9
Cn1nc(-c2ccc(F)cc2)c(-c2ccc3nc(NC(=O)c4ccnc(N5CCOCC5)c4)cn3n2)c1C1CCN(CCCF)CC1 [Compound 162, N-(6-(3-(4-Fluorophenyl)-5-(1-(3-fluoropropyl)piperidin-4-yl)-1-methyl-1H-pyrazol-4-yl)imidazo[1,2-b]pyridazin-2-yl)-2-morpholinoisonicotinamide] | 0.5 | 17.5
Cn1nc(-c2ccc(F)cc2)c(-c2ccc3nc(NC(=O)c4ccnc(N5CCOCC5)c4)cn3n2)c1C1CCN(CC(N)=O)CC1 [Compound 163, N-(6-(5-(1-(2-Amino-2-oxoethyl)piperidin-4-yl)-3-(4-fluorophenyl)-1-methyl-1H-pyrazol-4-yl)imidazo[1,2-b]pyridazin-2-yl)-2-morpholinoisonicotinamide] | 0.4 | 0.6
Cn1nc(-c2ccc(F)cc2)c(-c2ccc3nc(NC(=O)c4ccncc4)cn3n2)c1C1CCNCC1 [Compound 164, N-(6-(3-(4-Fluorophenyl)-1-methyl-5-(piperidin-4-yl)-1H-pyrazol-4-yl)imidazo[1,2-b]pyridazin-2-yl)isonicotinamide] | 0.9 | 3.3
